In ChEMBL document CHEMBL5696441 (Nat Chem Biol, 2011):

What was measured:
[1] = molecular target: T1, Megakaryocyte-associated tyrosine-protein kinase (Homo sapiens) (UniProt P42679); assay: Inhibition of human MATK assessed as residual activity at 1 uM using polyEy as substrate in presence of 33P-ATP by ProQinase assay relative to control
T1 sequence (whole entry): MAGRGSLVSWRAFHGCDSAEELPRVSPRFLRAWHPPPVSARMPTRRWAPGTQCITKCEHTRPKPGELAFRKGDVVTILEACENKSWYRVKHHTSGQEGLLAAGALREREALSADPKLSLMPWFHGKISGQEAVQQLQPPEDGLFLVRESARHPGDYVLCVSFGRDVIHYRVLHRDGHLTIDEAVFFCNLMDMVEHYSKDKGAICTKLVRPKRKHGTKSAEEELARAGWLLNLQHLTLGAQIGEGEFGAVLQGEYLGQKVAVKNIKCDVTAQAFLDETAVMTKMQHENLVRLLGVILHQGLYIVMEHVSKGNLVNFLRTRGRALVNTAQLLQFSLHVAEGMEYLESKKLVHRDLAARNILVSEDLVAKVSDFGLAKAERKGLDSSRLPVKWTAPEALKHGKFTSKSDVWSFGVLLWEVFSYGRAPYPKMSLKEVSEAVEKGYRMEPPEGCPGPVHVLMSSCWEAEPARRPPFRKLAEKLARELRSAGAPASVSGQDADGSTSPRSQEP

[2] = molecular target: Tyrosine-protein kinase Srms (Homo sapiens) (UniProt Q9H3Y6); assay: Inhibition of SRMS (unknown origin) assessed as remaining activity at 1 uM by Kinome scan method relative to control
[3] = molecular target: Cyclin-dependent kinase 1/cyclin B1 (Homo sapiens) (UniProt P06493+P14635); assay: Inhibition of human CDK1/CycB1 assessed as residual activity at 1 uM using RBER-CHKtide as substrate in presence of 33P-ATP by ProQinase assay relative to control; format: protein-complex assay
[4] = molecular target: Mitogen-activated protein kinase 6 (Homo sapiens) (UniProt Q16659); assay: Inhibition of ERK3 (unknown origin) assessed as remaining activity at 1 uM by Kinome scan method relative to control
[5] = molecular target: Cyclin-dependent kinase 4/cyclin D1 (Homo sapiens) (UniProt P11802+P24385); assay: Inhibition of human CDK4/CyclinD1 assessed as residual activity at 1 uM using RBER-CHKtide as substrate in presence of 33P-ATP by ProQinase assay relative to control; format: protein-complex assay
[6] = molecular target: Protein kinase C eta type (Homo sapiens) (UniProt P24723); assay: Inhibition of human PKCeta assessed as residual activity at 1 uM using histon H2B as substrate in presence of 33P-ATP by ProQinase assay relative to control
[7] = molecular target: Serine/threonine-protein kinase PAK 6 (Homo sapiens) (UniProt Q9NQU5); assay: Inhibition of PAK6 (unknown origin) assessed as remaining activity at 1 uM by Kinome scan method relative to control
[8] = system: Proto-oncogene tyrosine-protein kinase receptor Ret (Homo sapiens), P07949 [V804L]; assay: Inhibition of RET V804L (unknown origin) assessed as remaining activity at 1 uM by Kinome scan method relative to control
[9] = system: Epidermal growth factor receptor (Homo sapiens), P00533 [UNDEFINED MUTATION]; assay: Inhibition of EGFR E746-A750del mutant (unknown origin) assessed as remaining activity at 1 uM by Kinome scan method relative to control
[10] = molecular target: Cyclin-dependent kinase-like 2 (Homo sapiens) (UniProt Q92772); assay: Inhibition of CDKL2 (unknown origin) assessed as remaining activity at 1 uM by Kinome scan method relative to control
[11] = molecular target: Proto-oncogene tyrosine-protein kinase Src (Homo sapiens) (UniProt P12931); assay: Inhibition of human GST/His-tagged SRC assessed as residual activity at 1 uM using PolyEY as substrate in presence of 33P-ATP by ProQinase assay relative to control
[12] = molecular target: Serine/threonine-protein kinase N1 (Homo sapiens) (UniProt Q16512); assay: Inhibition of human PRK1 assessed as residual activity at 1 uM using RBER-CHKtide as substrate in presence of 33P-ATP by ProQinase assay relative to control
[13] = molecular target: CDK4/Cyclin D3 (Homo sapiens) (UniProt P11802+P30281); assay: Inhibition of human CDK4/CycD3 assessed as residual activity at 1 uM using RBER-CHKtide as substrate in presence of 33P-ATP by ProQinase assay relative to control; format: protein-complex assay
[14] = molecular target: Vascular endothelial growth factor receptor 3 (Homo sapiens) (UniProt P35916); assay: Inhibition of human VEGFR3 assessed as residual activity at 1 uM using polyEY as substrate in presence of 33P-ATP by ProQinase assay relative to control
[15] = molecular target: Tyrosine-protein kinase Fyn (Homo sapiens) (UniProt P06241); assay: Inhibition of human FYN assessed as residual activity at 1 uM using polyEY as substrate in presence of 33P-ATP by ProQinase assay relative to control
[16] = molecular target: Serine/threonine-protein kinase pim-1 (Homo sapiens) (UniProt P11309); assay: Inhibition of human PIM1 assessed as residual activity at 1 uM using RBER-GSK3(14-27) as substrate in presence of 33P-ATP by ProQinase assay relative to control
[17] = molecular target: Tyrosine-protein kinase receptor UFO (Homo sapiens) (UniProt P30530); assay: Inhibition of AXL (unknown origin) assessed as remaining activity at 1 uM by Kinome scan method relative to control
[18] = molecular target: Phosphatidylinositol 4-phosphate 3-kinase C2 domain-containing subunit beta (Homo sapiens) (UniProt O00750); assay: Inhibition of PIK3C2B (unknown origin) assessed as remaining activity at 1 uM by Kinome scan method relative to control
[19] = system: Hepatocyte growth factor receptor (Homo sapiens), P08581 [Y1235D]; assay: Inhibition of human MET Y1235D mutant assessed as residual activity at 1 uM using PolyEY as substrate in presence of 33P-ATP by ProQinase assay relative to control
[20] = molecular target: Serine/threonine-protein kinase PAK 4 (Homo sapiens) (UniProt O96013); assay: Inhibition of PAK4 (unknown origin) assessed as remaining activity at 1 uM by Kinome scan method relative to control
[21] = molecular target: Mast/stem cell growth factor receptor Kit (Homo sapiens) (UniProt P10721); assay: Inhibition of human KIT assessed as residual activity at 1 uM using polyEY as substrate in presence of 33P-ATP by ProQinase assay relative to control
[22] = system: Tyrosine-protein kinase ABL1 (Homo sapiens), P00519 [M351T]; assay: Inhibition of human ABL1 M351T mutant assessed as residual activity at 1 uM using Poly(Ala,Glu,Lys,Tyr)6:2:5:1 as substrate in presence of 33P-ATP by ProQinase assay relative to control
[23] = system: Receptor-type tyrosine-protein kinase FLT3 (Homo sapiens), P36888 [UNDEFINED MUTATION]; assay: Inhibition of human […] mutant assessed as residual activity at 1 uM using Poly(Ala,Glu,Lys,Tyr)6:2:5:1 as substrate in presence of 33P-ATP by ProQinase assay relative to control

Phosphatidylinositol 4-phosphate 3-kinase C2 domain-containing subunit beta (Homo sapiens), sequence (O00750 whole entry, the tested form may be a part): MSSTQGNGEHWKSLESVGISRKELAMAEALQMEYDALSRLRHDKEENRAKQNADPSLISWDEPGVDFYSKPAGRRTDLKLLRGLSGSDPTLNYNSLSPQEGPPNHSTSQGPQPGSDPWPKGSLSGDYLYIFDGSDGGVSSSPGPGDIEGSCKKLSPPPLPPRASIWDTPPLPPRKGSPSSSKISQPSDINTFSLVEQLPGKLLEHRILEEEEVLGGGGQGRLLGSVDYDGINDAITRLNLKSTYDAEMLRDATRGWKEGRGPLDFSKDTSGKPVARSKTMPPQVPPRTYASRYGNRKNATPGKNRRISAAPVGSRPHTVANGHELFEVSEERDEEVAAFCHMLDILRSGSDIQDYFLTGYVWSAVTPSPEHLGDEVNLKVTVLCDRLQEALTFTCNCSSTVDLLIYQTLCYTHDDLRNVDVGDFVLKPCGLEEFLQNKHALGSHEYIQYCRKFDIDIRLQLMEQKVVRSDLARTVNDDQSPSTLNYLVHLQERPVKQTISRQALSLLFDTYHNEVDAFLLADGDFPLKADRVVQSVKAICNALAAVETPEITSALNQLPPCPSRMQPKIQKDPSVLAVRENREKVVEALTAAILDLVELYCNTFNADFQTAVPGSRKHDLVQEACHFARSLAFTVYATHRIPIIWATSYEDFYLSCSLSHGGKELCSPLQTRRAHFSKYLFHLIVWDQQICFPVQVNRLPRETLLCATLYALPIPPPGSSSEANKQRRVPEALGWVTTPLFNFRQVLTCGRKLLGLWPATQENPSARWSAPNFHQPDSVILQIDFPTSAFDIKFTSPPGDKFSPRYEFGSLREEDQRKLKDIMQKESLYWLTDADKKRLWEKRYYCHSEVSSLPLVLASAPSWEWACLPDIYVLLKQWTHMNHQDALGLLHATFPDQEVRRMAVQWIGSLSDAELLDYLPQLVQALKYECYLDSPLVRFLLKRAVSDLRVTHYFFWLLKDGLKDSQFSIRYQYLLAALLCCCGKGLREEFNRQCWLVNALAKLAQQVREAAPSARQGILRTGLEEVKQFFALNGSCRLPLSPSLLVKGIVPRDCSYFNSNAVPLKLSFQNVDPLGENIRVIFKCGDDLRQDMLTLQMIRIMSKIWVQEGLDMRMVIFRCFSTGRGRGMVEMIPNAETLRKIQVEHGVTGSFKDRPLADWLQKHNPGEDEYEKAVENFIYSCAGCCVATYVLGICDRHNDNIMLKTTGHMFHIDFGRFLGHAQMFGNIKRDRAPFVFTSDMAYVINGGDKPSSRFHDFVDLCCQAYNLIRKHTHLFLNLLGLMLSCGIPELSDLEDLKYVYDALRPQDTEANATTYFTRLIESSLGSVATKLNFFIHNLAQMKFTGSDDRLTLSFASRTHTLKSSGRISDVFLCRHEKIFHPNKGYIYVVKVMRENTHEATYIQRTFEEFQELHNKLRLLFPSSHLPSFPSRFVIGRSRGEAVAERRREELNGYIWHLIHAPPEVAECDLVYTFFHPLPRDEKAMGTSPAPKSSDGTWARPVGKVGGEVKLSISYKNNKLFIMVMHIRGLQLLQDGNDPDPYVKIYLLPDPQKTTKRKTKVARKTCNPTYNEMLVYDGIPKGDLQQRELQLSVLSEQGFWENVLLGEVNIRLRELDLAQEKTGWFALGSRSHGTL
Proto-oncogene tyrosine-protein kinase receptor Ret (Homo sapiens), P07949 [V804L], sequence (P07949 whole entry V804L): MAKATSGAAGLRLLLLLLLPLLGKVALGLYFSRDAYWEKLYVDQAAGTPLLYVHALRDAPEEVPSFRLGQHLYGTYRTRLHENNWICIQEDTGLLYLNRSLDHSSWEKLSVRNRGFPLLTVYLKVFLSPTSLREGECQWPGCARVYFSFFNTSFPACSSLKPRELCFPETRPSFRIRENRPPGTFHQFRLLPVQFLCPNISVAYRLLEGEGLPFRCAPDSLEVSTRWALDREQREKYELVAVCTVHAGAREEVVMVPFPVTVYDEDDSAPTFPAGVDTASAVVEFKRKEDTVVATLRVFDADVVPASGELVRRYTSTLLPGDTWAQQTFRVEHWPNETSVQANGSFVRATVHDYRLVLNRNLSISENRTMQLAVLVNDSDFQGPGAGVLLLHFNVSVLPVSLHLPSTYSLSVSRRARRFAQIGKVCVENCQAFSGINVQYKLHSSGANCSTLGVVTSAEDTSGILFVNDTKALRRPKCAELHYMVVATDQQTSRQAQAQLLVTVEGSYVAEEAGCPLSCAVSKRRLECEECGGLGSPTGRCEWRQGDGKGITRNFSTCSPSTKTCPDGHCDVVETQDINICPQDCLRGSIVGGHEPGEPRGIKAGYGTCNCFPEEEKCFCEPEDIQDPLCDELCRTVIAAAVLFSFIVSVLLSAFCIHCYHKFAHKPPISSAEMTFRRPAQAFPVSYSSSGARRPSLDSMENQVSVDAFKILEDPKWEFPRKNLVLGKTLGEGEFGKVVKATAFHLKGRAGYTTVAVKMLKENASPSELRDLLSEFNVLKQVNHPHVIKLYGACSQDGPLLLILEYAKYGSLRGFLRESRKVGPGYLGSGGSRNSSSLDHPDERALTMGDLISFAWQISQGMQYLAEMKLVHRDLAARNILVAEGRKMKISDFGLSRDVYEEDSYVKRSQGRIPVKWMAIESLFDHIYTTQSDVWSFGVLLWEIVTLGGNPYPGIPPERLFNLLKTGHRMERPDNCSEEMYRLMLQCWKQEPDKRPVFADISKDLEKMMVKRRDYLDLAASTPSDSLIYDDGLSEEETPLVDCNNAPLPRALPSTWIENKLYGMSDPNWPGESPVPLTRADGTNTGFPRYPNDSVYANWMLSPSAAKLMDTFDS
Serine/threonine-protein kinase PAK 6 (Homo sapiens), sequence (Q9NQU5 whole entry, looked up): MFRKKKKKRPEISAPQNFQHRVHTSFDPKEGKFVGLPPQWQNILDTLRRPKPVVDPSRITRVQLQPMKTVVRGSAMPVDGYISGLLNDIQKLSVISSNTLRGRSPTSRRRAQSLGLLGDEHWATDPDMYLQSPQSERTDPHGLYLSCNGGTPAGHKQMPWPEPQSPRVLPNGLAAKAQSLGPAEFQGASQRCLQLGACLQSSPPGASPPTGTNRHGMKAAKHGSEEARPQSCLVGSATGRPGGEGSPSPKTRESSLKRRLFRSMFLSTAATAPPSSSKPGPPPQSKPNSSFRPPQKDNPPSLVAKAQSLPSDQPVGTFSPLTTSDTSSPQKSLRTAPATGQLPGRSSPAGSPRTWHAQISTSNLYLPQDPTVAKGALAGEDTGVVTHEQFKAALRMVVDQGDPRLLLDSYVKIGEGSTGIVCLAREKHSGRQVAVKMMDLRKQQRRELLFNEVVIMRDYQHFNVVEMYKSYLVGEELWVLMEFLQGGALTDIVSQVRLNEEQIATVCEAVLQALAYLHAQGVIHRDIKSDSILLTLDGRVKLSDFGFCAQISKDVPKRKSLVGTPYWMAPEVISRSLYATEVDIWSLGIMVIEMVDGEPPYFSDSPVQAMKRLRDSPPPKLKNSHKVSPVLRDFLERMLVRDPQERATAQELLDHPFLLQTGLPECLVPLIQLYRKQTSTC
Mast/stem cell growth factor receptor Kit (Homo sapiens), sequence (P10721 whole entry): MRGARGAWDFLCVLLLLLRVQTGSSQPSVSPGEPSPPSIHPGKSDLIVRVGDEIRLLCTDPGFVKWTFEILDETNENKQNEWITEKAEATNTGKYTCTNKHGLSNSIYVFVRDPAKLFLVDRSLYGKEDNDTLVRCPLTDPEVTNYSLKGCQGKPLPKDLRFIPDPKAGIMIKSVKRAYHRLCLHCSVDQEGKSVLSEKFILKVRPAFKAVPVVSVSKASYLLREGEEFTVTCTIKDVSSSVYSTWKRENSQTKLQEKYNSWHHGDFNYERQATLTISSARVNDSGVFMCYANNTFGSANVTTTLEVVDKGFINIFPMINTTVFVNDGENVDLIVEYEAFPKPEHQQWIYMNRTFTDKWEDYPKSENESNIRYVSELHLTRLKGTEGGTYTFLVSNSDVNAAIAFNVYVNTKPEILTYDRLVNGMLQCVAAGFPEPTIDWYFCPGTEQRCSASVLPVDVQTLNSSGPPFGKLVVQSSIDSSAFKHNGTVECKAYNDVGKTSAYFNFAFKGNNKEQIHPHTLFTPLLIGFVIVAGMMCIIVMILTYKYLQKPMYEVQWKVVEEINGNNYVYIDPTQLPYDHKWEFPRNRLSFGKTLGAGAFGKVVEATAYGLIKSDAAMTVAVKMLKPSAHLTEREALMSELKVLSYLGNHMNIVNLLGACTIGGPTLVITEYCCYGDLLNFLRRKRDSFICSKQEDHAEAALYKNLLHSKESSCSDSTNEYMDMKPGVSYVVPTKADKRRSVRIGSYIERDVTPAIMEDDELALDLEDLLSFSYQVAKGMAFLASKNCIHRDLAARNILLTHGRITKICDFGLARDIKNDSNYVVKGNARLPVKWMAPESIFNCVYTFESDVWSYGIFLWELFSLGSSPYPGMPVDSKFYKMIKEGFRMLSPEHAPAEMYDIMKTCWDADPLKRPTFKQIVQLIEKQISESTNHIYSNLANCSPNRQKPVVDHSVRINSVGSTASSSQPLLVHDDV
Protein kinase C eta type (Homo sapiens), sequence (P24723 whole entry): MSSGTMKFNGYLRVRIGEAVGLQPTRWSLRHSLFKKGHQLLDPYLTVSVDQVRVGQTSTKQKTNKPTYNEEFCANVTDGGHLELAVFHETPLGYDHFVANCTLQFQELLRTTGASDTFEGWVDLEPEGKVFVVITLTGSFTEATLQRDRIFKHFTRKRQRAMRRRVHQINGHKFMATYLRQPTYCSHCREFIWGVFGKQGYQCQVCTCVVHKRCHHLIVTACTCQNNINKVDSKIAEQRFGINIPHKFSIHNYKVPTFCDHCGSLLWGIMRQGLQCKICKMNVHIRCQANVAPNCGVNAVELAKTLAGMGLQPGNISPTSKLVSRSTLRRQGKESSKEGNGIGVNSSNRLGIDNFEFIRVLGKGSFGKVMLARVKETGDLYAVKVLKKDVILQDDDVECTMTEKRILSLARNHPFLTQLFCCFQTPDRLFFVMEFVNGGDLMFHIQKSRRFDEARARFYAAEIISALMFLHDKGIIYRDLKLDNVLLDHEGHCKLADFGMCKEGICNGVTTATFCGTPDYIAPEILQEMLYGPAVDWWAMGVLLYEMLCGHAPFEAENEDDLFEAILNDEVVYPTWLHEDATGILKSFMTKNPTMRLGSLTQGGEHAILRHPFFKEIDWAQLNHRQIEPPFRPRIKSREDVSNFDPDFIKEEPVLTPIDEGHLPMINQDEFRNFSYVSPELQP

**Q.** How did the Activity [1] turn out when `O=C1c2ccc(Nc3ccc(F)cc3F)cc2CCc2ccc(OC[C@H](O)CO)cc21` [Skepinone-L] was run?
**A.** The Activity was 111%.

**Q.** What about the Activity [2] of the same molecule?
**A.** Its Activity is 90%.

**Q.** What about the Activity [3] of the same molecule?
**A.** The Activity was 83%.

**Q.** And the Activity [4]?
**A.** Its Activity is 100%.

**Q.** And the Activity [5]?
**A.** Its Activity is 92%.

**Q.** And the Activity [6]?
**A.** Its Activity is 97%.

**Q.** What about the Activity [7] of the same molecule?
**A.** Its Activity is 99%.

**Q.** What about the Activity [8] of the same molecule?
**A.** The Activity was 100%.

**Q.** And the Activity [9]?
**A.** The Activity was 72%.

**Q.** What about the Activity [10] of the same molecule?
**A.** The Activity was 100%.

**Q.** And the Activity [11]?
**A.** Its Activity is 119%.

**Q.** And the Activity [12]?
**A.** Its Activity is 92%.

**Q.** And the Activity [13]?
**A.** Its Activity is 98%.

**Q.** What about the Activity [14] of the same molecule?
**A.** The Activity was 100%.

**Q.** What about the Activity [15] of the same molecule?
**A.** The Activity was 124%.

**Q.** And the Activity [16]?
**A.** The Activity was 105%.

**Q.** And the Activity [17]?
**A.** Its Activity is 94%.

**Q.** What about the Activity [18] of the same molecule?
**A.** The Activity was 100%.

**Q.** What about the Activity [19] of the same molecule?
**A.** Its Activity is 114%.

**Q.** And the Activity [20]?
**A.** The Activity was 100%.

**Q.** And the Activity [21]?
**A.** Its Activity is 111%.

**Q.** What about the Activity [22] of the same molecule?
**A.** The Activity was 102%.

**Q.** What about the Activity [23] of the same molecule?
**A.** Its Activity is 101%.
